Source: patent US20220175688A1, “POLYMERIC NANOPARTICLES” (Hillstream BioPharma, Inc., priority 2015, published 2022)

Key:
[1] = Isoelectric point of peptide; type: physicochemical
[2] = Size, zeta potential, % EE of singly or dually loaded PLA72K-PEG-PPG-PEG12.5K NPs; type: physicochemical
Method: PTX loaded nanoparticles were produced using an emulsion-solvent evaporation method. Briefly, 50 mg of copolymer in 5 ml acetonitrile (ACN) and 5 mg of PTX (LC Laboratories, Boston, Mass., US) were dissolved in 100 ul ACN and added to 50 mg of PLA-PEG-PPG-PEG solution in 5 ml ACN. The resulting mixture was then added into a 20 ml aqueous phase composed of F127 in distilled water and stirred at room temperature for 6 to 8 hours to facilitate solvent evaporation and nanoparticle stabilization. PTX and NuBCP-9 peptide loaded PLA-PEG-PPG-PEG (50 mg) nanoparticles were prepared by double emulsion process. Paclitaxel was added into the dissolved PLA-PEG-PPG-PEG copolymer followed by immediate addition of peptide with a slight sonication. […]
Nanoparticles were filtered through an Amikon 30-kDa ultrafilter (Millipore, USA) and washed twice with MQ water to remove free drug/dye. […] The filtrate was collected and analyzed for free NuBCP-9 peptide by a Micro-BCA Kit (Pierce Chemicals, USA) and measured on EPOCH microplate reader (BioTek, US) at 590 nm. Similarly, free paclitaxel was measured through high performance liquid chromatography HPLC (Perkin Elmer, US) assay method, using C18 column with acetonitrile, Water, Methanol (60:35:5 volume ratio) as mobile phase. Encapsulation efficiency (EE %) of NuBCP-9 peptide/PTX was determined using the following formula:

Ehrlich tumor = assay: Antitumor activity in syngeneic Ehrlich tumor model (Example 8); type: in vivo, Balb/c mice; conditions: 21 days treatment
Method: H. Analysis of antitumor activity: Mice Ehrlich tumor cells were injected subcutaneously in the hind limb of syngeneic Balb/c mice (17-22 g). Tumor bearing mice (˜150 mm^3) were divided into 9 groups (6 mice/group) and treated weekly or biweekly intraperitoneally (i.p.) with different formulations for 21 days. Tumor volume was determined by vernier caliper and calculated using the formula (A×B^2)×0.5, where A and B are the longest and shortest tumor diameters, respectively. From each group, 1 mouse was sacrificed on day 7, 14, and 21 for harvesting of tumor for histopathologal examination. The tumors were fixed in 10% formalin/saline and embedded in paraffin. Five-micrometer sections were stained with hematoxylin and eosin for further immunohistochemistry, TUNNEL and Ki67 assay. Statistical analysis of tumor volumes was performed by one-way ANOVA using Graph pad prism. Survival of the mice was determined by the Kaplan-Meier method using Prism 4.0 software (Graph Pad Software).
The in vivo antitumor efficacy and systemic toxicity of the dual-drug and single drug loaded nanoparticles were evaluated on EAT tumor model Balb/c mice. […]

MCF-7/PTX-R = assay: IC50 in PTX-resistant MCF-7 cells (Example 9); type: cell-based; conditions: Homo sapiens, MCF7
From the text: (§1) Accordingly, MCF-7 cells resistant to PTX were generated by exposure to increasing PTX concentrations (Table 9).

breast cancer = conditions: first-line treatment of locally recurrent or metastatic breast cancer; cited from earlier work
[3] = system: MCF-7 breast cancer cells; assay: In vitro cytotoxicity, XTT cell proliferation assay; type: cell-based; conditions: Homo sapiens, MCF7, 72 hrs
Method: (§2) D. In vitro cytotoxicity analysis: […] The cells were maintained at 37° C. and 5% CO2 atmosphere for the duration of experiments. Exponentially growing cancer cells were plated into a 96-well plate at a seeding density of 3000 cells per well and incubated for 24 hrs.

[4] = system: MDA-MB231 breast cancer cells; assay: as above; type: cell-based; conditions: Homo sapiens, MDA-MB-231, 72 hrs
Method: as §2

MCF-7/PTX-R cells = assay: Apoptosis in PTX-resistant cells (Annexin V/PI, FLOW, caspase-3 and PARP cleavage); type: cell-based, Human; conditions: 100 nM, 48 h
Method: Cells were then stained with Annexin V/PI and analyzed by FACS. […] (see Example 9).
Analysis was performed by immunoblotting with anti-caspase-3 CF, anti-PARP CF and anti-β-Actin antibodies (see Example 9).
as §1

Row | Compound | isoelectric point [1] | EE % of Peptide ([2]; encapsulation efficiency of NuBCP-9) | Ki67 expression in tumor tissues (Ehrlich tumor) | IC50 (MCF-7/PTX-R) | progression-free survival (breast cancer) | IC50 [3] | IC50 [4] | induction of apoptosis (MCF-7/PTX-R cells) | EE % of PTX ([2]; encapsulation efficiency)
1 | FSRSLHSLL (listed as Homo sapiens) [NuBCP-9] | ~7.2 pH | 64.5% | – | – | – | – | – | – | –
2 | CC(=O)O[C@H]1C(=O)[C@@]2(C)[C@H]([C@H](OC(=O)c3ccccc3)[C@]3(O)C[C@H](OC(=O)[C@H](O)[C@@H](NC(=O)c4ccccc4)c4ccccc4)C(C)=C1C3(C)C)[C@]1(OC(C)=O)CO[C@@H]1C[C@@H]2O [PTX, Paclitaxel] | – | – | high | 1.75 µM | 11 months | 38 nM | 46 nM | not | 87%
